We go through 4 compounds from PMC10092844, “Inhibition profile of trifludimoxazin towards PPO2 target site mutations” (Pest Management Science, 2022).

For experiment [1], the target named is T1, PPO2 R128E ΔG210 (Amaranthus tuberculatus, UniProt Q0NZW9, DEL210/R128E).
T1 sequence (Q0NZW9 with tags, fused parts or gaps R128E/DEL210): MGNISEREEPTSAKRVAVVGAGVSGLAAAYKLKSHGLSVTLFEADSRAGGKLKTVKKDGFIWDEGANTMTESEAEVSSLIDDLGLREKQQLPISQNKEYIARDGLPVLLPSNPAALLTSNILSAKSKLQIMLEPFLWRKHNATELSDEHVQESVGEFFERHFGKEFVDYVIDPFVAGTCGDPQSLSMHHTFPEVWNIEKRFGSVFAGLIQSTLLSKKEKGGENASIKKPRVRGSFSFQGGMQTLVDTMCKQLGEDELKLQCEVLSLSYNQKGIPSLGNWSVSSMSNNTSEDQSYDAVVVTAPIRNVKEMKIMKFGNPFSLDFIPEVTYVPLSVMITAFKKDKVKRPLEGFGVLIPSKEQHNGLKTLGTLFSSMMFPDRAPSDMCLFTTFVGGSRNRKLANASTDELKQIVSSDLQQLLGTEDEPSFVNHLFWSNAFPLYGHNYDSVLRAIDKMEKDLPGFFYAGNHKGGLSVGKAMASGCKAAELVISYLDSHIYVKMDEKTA
As to the kind of experiment: biochemical. It counts as biochemical.

In experiment [2] the target is T2, PPO2 G399A (Amaranthus tuberculatus, UniProt Q0NZW9, G398A).
T2 sequence (Q0NZW9 31-534 G398A): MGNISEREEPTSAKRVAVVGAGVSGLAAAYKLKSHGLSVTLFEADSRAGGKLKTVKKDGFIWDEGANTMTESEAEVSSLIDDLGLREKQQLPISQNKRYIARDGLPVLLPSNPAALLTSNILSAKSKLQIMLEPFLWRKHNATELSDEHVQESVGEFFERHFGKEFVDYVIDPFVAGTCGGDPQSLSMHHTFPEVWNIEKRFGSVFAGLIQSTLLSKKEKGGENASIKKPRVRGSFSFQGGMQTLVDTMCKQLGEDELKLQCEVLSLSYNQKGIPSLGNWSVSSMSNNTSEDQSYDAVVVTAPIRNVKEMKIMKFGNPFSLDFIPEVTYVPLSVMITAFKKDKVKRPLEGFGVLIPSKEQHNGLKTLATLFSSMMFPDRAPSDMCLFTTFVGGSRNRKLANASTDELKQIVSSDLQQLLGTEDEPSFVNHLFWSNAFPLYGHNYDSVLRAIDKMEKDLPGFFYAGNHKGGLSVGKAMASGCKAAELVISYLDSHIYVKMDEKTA
As to the kind of experiment: biochemical. It counts as biochemical.

Experiment [3] deals with T3, PPO2 R128I ΔG210 (Amaranthus tuberculatus, UniProt Q0NZW9, DEL210-210/R128I).
T3 sequence (Q0NZW9 with tags, fused parts or gaps R128I/DEL210-210): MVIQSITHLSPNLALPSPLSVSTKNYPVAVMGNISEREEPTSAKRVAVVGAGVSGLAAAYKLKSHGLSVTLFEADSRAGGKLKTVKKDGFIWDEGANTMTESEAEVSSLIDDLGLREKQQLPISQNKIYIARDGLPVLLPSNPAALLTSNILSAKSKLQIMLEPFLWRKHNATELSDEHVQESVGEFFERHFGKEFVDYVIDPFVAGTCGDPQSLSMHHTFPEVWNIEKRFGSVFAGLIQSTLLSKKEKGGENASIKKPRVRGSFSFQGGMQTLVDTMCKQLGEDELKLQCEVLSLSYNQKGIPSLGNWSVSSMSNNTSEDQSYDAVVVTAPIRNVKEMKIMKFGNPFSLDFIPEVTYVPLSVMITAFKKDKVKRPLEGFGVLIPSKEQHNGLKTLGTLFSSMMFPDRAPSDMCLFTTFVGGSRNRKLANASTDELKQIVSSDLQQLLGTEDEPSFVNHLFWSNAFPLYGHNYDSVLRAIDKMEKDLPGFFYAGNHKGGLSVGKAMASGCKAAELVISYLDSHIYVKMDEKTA
As to the kind of experiment: biochemical. It counts as biochemical.

Experiment [4] addresses PPO2 wild-type (Amaranthus tuberculatus, UniProt Q0NZW9). As to the kind of experiment: in vitro inhibition assay, recombinant PPO2 enzyme. It counts as biochemical.
Experiment [5] addresses T4, PPO2 R128T ΔG210 in Escherichia coli hemG (Amaranthus tuberculatus, UniProt Q0NZW9, DEL210-210/R128T, cells depend on it).
T4 sequence (Q0NZW9 with tags, fused parts or gaps R128T/DEL210-210): T3 sequence (Q0NZW9 with tags, fused parts or gaps R128I/DEL210-210) with I128T
It counts as cell-based. The conditions noted are these: read-out: IC50 (E. coli hemG growth).

Molecules are shown by their SMILES. Numbering of substitutions follows the chain as printed.

Sequence of PPO2 wild-type (Q0NZW9 entry or part of it): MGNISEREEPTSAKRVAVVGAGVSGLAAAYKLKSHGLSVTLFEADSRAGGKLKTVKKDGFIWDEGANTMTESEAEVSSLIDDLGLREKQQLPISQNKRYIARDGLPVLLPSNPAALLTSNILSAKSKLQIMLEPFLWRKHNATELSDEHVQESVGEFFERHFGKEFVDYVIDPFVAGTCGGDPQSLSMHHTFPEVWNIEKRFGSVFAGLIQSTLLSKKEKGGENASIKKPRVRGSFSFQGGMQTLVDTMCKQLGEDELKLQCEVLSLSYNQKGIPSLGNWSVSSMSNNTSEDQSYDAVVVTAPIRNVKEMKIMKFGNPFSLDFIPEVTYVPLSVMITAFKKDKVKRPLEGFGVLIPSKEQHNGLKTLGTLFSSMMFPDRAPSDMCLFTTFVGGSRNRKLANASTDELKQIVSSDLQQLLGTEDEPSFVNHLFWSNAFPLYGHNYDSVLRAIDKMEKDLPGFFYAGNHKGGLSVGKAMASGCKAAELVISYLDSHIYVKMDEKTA

As a reminder, the IC50 is the point on the concentration scale where inhibition reaches its midpoint. For `C#CCN1C(=O)C(F)(F)Oc2cc(F)c(-n3c(=O)n(C)c(=S)n(C)c3=O)cc21` [Trifludimoxazin, trifludimoxazin], the IC50 was 8.61 nM in experiment [1], 1.17 nM in experiment [2], 99.3 nM in experiment [3] and 67.5 nM in experiment [5]. Further, the Resistance factor in experiment [1] was 35; in experiment [3], 405; in experiment [4], 1.
In the case of `CCOC(=O)C(C)OC(=O)c1cc(Oc2ccc(C(F)(F)F)cc2Cl)ccc1[N+](=O)[O-]` (stereo not drawn) [Lactofen, lactofen], the IC50 in experiment [1] was 649 nM; in experiment [2], 1580 nM; in experiment [3] it was 1950 nM; in experiment [5] it was over 10000 nM.
Turning to `CS(=O)(=O)NC(=O)c1cc(Oc2ccc(C(F)(F)F)cc2Cl)ccc1[N+](=O)[O-]` [Fomesafen, fomesafen], the IC50 in experiment [1], in experiment [2] and in experiment [3] was over 10000 nM throughout.
On to `CC(C)N(C)S(=O)(=O)NC(=O)c1cc(-n2c(=O)cc(C(F)(F)F)n(C)c2=O)c(F)cc1Cl` [Saflufenacil, saflufenacil], for which the IC50 in experiment [1] is over 10000 nM; in experiment [2] it was 627 nM; in experiment [3], over 10000 nM; in experiment [5], over 10000 nM.
